In patent publication US7022667B2, “O-derivatized nocathiacin derivatives” (Bristol-Myers Squibb Company, priority 2002, dated 2006):
In brackets after ≈: the same amount, converted by molar mass.

Legend:
Test in all cases: MIC, broth micro dilution assay (NCCLS)
Assay type in all cases: cell-based
[1] = tested on: Staphylococcus aureus A15090; settings: Mueller-Hinton medium, 35° C., 18 hours
Summary of the method: (§1)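 Broth microdilution in Mueller-Hinton medium, with a final inoculum of about 5×10^5 cfu/well. Plates incubated at 35 °C for 18 hours in ambient air. MIC = lowest drug concentration preventing visible growth.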

[2] = tested on: Enterococcus faecalis A20688; settings: Mueller-Hinton medium, 35° C., 18 hours
Summary of the method: as §1

[3] = tested on: Streptococcus pneumoniae A28272; settings: 50% Mueller-Hinton medium and 50% Todd Hewitt medium, 35° C., 18 hours

Structure (SMILES)	MIC (μg/mL) Staphylococcus aureus A15090 [1]	MIC (μg/mL) Enterococcus faecalis A20688 [2] [µg/mL]	MIC (μg/mL) Streptococcus pneumoniae A28272 [3] [µg/mL]
C=C(NC(=O)c1csc(-c2nc3c(cc2OCCCS(=O)(=O)[O-])-c2nc(cs2)C(=O)NC(C(C)O)C(=O)N/C(=C(\C)OC)c2nc(cs2)C(=O)NC2c4nc(cs4)C(=O)NC(COC(=O)c4c5c6c(cccc6n4O)COC(=O)C(OC4CC(C)(O)C(N(C)C)C(C)O4)C2OC5)c2nc-3cs2)n1)C(N)=O.[Na+] (stereo not drawn) [Example 28]	2.0 µg/mL	32	0.25
C=C(NC(=O)c1csc(-c2nc3c(cc2O)-c2nc(cs2)C(=O)NC(C(C)O)C(=O)NC(=C(C)OC)c2nc(cs2)C(=O)NC2c4nc(cs4)C(=O)NC(COC(=O)c4c5c6c(cccc6n4OCOP(=O)(OC(C)(C)C)OC(C)(C)C)COC(=O)C(OC4CC(C)(O)C(N(C)C)C(C)O4)C2OC5)c2nc-3cs2)n1)C(N)=O (stereo not drawn) [Example 40]	0.125 µg/mL (≈ 0.0753 µM)	0.25 (≈ 0.151 µM)	0.015 (≈ 0.00904 µM)
C=C(NC(=O)c1csc(-c2nc3c(cc2OCC(N)=O)-c2nc(cs2)C(=O)NC(C(C)O)C(=O)NC(=C(C)OC)c2nc(cs2)C(=O)NC2c4nc(cs4)C(=O)NC(COC(=O)c4c5c6c(cccc6n4OCC(N)=O)COC(=O)C(OC4CC(C)(O)C(N(C)C)C(C)O4)C2OC5)c2nc-3cs2)n1)C(N)=O (stereo not drawn) [Example 9]	2.0 µg/mL (≈ 1.29 µM)	4.0 (≈ 2.58 µM)	0.125 (≈ 0.0806 µM)
C=C(NC(=O)c1csc(-c2nc3c(cc2O)-c2nc(cs2)C(=O)NC(C(C)O)C(=O)NC(=C(C)OC)c2nc(cs2)C(=O)NC2c4nc(cs4)C(=O)NC(COC(=O)c4c5c6c(cccc6n4OCCCN4CCN(C)CC4)COC(=O)C(OC4CC(C)(O)C(N(C)C)C(C)O4)C2OC5)c2nc-3cs2)n1)C(N)=O (stereo not drawn) [Example 50]	1.0 µg/mL (≈ 0.634 µM)	1.0 (≈ 0.634 µM)	0.03 (≈ 0.019 µM)
C=C(NC(=O)c1csc(-c2nc3c(cc2O)-c2nc(cs2)C(=O)NC(C(C)O)C(=O)NC(=C(C)OC)c2nc(cs2)C(=O)NC2c4nc(cs4)C(=O)NC(COC(=O)c4c5c6c(cccc6n4OCCCl)COC(=O)C(OC4CC(C)(O)C(N(C)C)C(C)O4)C2OC5)c2nc-3cs2)n1)C(N)=O.Cl (stereo not drawn) [Example 13]	0.015 µg/mL	0.03	0.003
C=C(NC(=O)c1csc(-c2nc3c(cc2OCC(=O)OC(C)(C)C)-c2nc(cs2)C(=O)NC(C(C)O)C(=O)NC(=C(C)OC)c2nc(cs2)C(=O)NC2c4nc(cs4)C(=O)NC(COC(=O)c4c5c6c(cccc6n4OCC(=O)OC(C)(C)C)COC(=O)C(OC4CC(C)(O)C(N(C)C)C(C)O4)C2OC5)c2nc-3cs2)n1)C(N)=O (stereo not drawn) [Example 68]	8.0 µg/mL (≈ 4.8 µM)	4.0 (≈ 2.4 µM)	0.007 (≈ 0.0042 µM)
C=C(NC(=O)c1csc(-c2nc3c(cc2O)-c2nc(cs2)C(=O)NC(C(C)O)C(=O)NC(=C(C)OC)c2nc(cs2)C(=O)NC2c4nc(cs4)C(=O)NC(COC(=O)c4c5c6c(cccc6n4OCCCOC4OC(CO)C(O)C(O)C4O)COC(=O)C(OC4CC(C)(O)C(N(C)C)C(C)O4)C2OC5)c2nc-3cs2)n1)C(N)=O (stereo not drawn) [Example 58]	16 µg/mL (≈ 9.65 µM)	>128	0.06 (≈ 0.0362 µM)
C=C(NC(=O)c1csc(-c2nc3c(cc2OC(=O)C(C)(C)C(=O)OCc2ccccc2)-c2nc(cs2)C(=O)NC(C(C)O)C(=O)NC(=C(C)OC)c2nc(cs2)C(=O)NC2c4nc(cs4)C(=O)NC(COC(=O)c4c5c6c(cccc6n4O)COC(=O)C(OC4CC(C)(O)C(N(C)C)C(C)O4)C2OC5)c2nc-3cs2)n1)C(N)=O (stereo not drawn) [Example 31]	0.25 µg/mL (≈ 0.152 µM)	0.5 (≈ 0.305 µM)	0.06 (≈ 0.0365 µM)
C=C(NC(=O)c1csc(-c2nc3c(cc2OCOP(=O)([O-])OC(C)(C)C)-c2nc(cs2)C(=O)NC(C(C)O)C(=O)NC(=C(C)OC)c2nc(cs2)C(=O)NC2c4nc(cs4)C(=O)NC(COC(=O)c4c5c6c(cccc6n4OCOP(=O)([O-])OC(C)(C)C)COC(=O)C(OC4CC(C)(O)C(N(C)C)C(C)O4)C2OC5)c2nc-3cs2)n1)C(N)=O.[Na+].[Na+] (stereo not drawn) [Example 81]	128 µg/mL	>128	8
COC(C)=C1NC(=O)C(C(C)O)NC(=O)c2csc(n2)-c2cc(O)c(-c3nc(C(N)=O)cs3)nc2-c2csc(n2)C2COC(=O)c3c4c5c(cccc5n3OCCCS(=O)(=O)O)COC(=O)C(OC3CC(C)(O)C(N(C)C)C(C)O3)C(OC4)C(NC(=O)c3csc1n3)c1nc(cs1)C(=O)N2 (stereo not drawn) [Example 53]	0.25 µg/mL (≈ 0.168 µM)	1.0 (≈ 0.671 µM)	0.125 (≈ 0.0839 µM)
C=C(NC(=O)c1csc(-c2nc3c(cc2O)-c2nc(cs2)C(=O)NC(C(C)O)C(=O)NC(=C(C)OC)c2nc(cs2)C(=O)NC2c4nc(cs4)C(=O)NC(COC(=O)c4c5c6c(cccc6n4OCCCNS(=O)(=O)c4cn(C)cn4)COC(=O)C(OC4CC(C)(O)C(N(C)C)C(C)O4)C2OC5)c2nc-3cs2)n1)C(N)=O (stereo not drawn) [Example 47]	0.06 µg/mL (≈ 0.0366 µM)	0.25 (≈ 0.153 µM)	0.015 (≈ 0.00915 µM)
C=C(NC(=O)c1csc(-c2nc3c(cc2O)-c2nc(cs2)C(=O)NC(C(C)O)C(=O)NC(=C(C)OC)c2nc(cs2)C(=O)NC2c4nc(cs4)C(=O)NC(COC(=O)c4c5c6c(cccc6n4OCC(N)=O)COC(=O)C(OC4CC(C)(O)C(N(C)C)C(C)O4)C2OC5)c2nc-3cs2)n1)C(N)=O (stereo not drawn) [Example 8]	0.5 µg/mL (≈ 0.335 µM)	0.25 (≈ 0.167 µM)	0.03 (≈ 0.0201 µM)
C=C(NC(=O)c1csc(-c2nc3c(cc2O)-c2nc(cs2)C(=O)NC(C(C)O)C(=O)NC(=C(C)OC)c2nc(cs2)C(=O)NC2c4nc(cs4)C(=O)NC(COC(=O)c4c5c6c(cccc6n4OC(=O)NCCCC)COC(=O)C(OC4CC(C)(O)C(N(C)C)C(C)O4)C2OC5)c2nc-3cs2)n1)C(N)=O (stereo not drawn) [Example 15]	≦0.001 μg/mL	0.03 (≈ 0.0195 µM)	0.007 (≈ 0.00456 µM)
C=C(NC(=O)c1csc(-c2nc3c(cc2OCCN2CCOCC2)-c2nc(cs2)C(=O)NC(C(C)O)C(=O)NC(=C(C)OC)c2nc(cs2)C(=O)NC2c4nc(cs4)C(=O)NC(COC(=O)c4c5c6c(cccc6n4OCCN4CCOCC4)COC(=O)C(OC4CC(C)(O)C(N(C)C)C(C)O4)C2OC5)c2nc-3cs2)n1)C(N)=O (stereo not drawn) [Example 26]	1.0 µg/mL (≈ 0.601 µM)	0.25 (≈ 0.15 µM)	0.03 (≈ 0.018 µM)
C=C(NC(=O)c1csc(-c2nc3c(cc2OS(=O)(=O)c2cn(C)cn2)-c2nc(cs2)C(=O)NC(C(C)O)C(=O)NC(=C(C)OC)c2nc(cs2)C(=O)NC2c4nc(cs4)C(=O)NC(COC(=O)c4c5c6c(cccc6n4OCCCNS(=O)(=O)c4cn(C)cn4)COC(=O)C(OC4CC(C)(O)C(N(C)C)C(C)O4)C2OC5)c2nc-3cs2)n1)C(N)=O (stereo not drawn) [Example 87]	1.0 µg/mL (≈ 0.561 µM)	2.0 (≈ 1.12 µM)	0.06 (≈ 0.0337 µM)
C=C(NC(=O)c1csc(-c2nc3c(cc2O)-c2nc(cs2)C(=O)NC(C(C)O)C(=O)NC(=C(C)OC)c2nc(cs2)C(=O)NC2c4nc(cs4)C(=O)NC(COC(=O)c4c5c6c(cccc6n4OCC4OC6OC(C)(C)OC6C6OC(C)(C)OC46)COC(=O)C(OC4CC(C)(O)C(N(C)C)C(C)O4)C2OC5)c2nc-3cs2)n1)C(N)=O (stereo not drawn) [Example 38]	0.125 µg/mL (≈ 0.0744 µM)	0.03 (≈ 0.0179 µM)	0.001 (≈ 0.000595 µM)
C=C(NC(=O)c1csc(-c2nc3c(cc2OCC(=O)N(C)C)-c2nc(cs2)C(=O)NC(C(C)O)C(=O)NC(=C(C)OC)c2nc(cs2)C(=O)NC2c4nc(cs4)C(=O)NC(COC(=O)c4c5c6c(cccc6n4OCC(=O)N(C)C)COC(=O)C(OC4CC(C)(O)C(N(C)C)C(C)O4)C2OC5)c2nc-3cs2)n1)C(N)=O (stereo not drawn) [Example 71]	8.0 µg/mL (≈ 4.98 µM)	4.0 (≈ 2.49 µM)	0.125 (≈ 0.0777 µM)
C=C(NC(=O)c1csc(-c2nc3c(cc2OCc2ccccc2)-c2nc(cs2)C(=O)NC(C(C)O)C(=O)NC(=C(C)OC)c2nc(cs2)C(=O)NC2c4nc(cs4)C(=O)NC(COC(=O)c4c5c6c(cccc6n4OCc4ccccc4)COC(=O)C(OC4CC(C)(O)C(N(C)C)C(C)O4)C2OC5)c2nc-3cs2)n1)C(N)=O (stereo not drawn) [Example 66]	2.0 µg/mL (≈ 1.24 µM)	0.25 (≈ 0.155 µM)	0.001 (≈ 0.000618 µM)
C=C(NC(=O)c1csc(-c2nc3c(cc2O)-c2nc(cs2)C(=O)NC(C(C)O)C(=O)NC(=C(C)OC)c2nc(cs2)C(=O)NC2c4nc(cs4)C(=O)NC(COC(=O)c4c5c6c(cccc6n4OC(=O)NC)COC(=O)C(OC4CC(C)(O)C(N(C)C)C(C)O4)C2OC5)c2nc-3cs2)n1)C(N)=O (stereo not drawn) [Example 60]	0.125 µg/mL (≈ 0.0836 µM)	0.06 (≈ 0.0401 µM)	0.001 (≈ 0.000669 µM)
